A short description of series [1]: CSF levels after i.p. dosing in c57/Bl6 mice. The format is in vivo, mouse.
Series [2] can be described thus: CSF levels after i.p. dosing in CD-1 mice. Conditions: zolmitriptan 3 and 10 mg/kg i.p., male CD-1 mice.
The test system of the next series is CD-1 mice. In words: Resident-Intruder (RI) assay of aggression. The series is classed as in vivo, mouse. The settings on record: 10 mg/kg. Here is the method: Correspondingly, the RI assay has been used preclinically to study the effect of drugs on rodent aggression (Miczek et al., 2001). The RI assay typically relies on the interpretation and scoring of offensive (resident animal) behavior patterns and may also include analysis of defensive (intruder animal) behavior patterns as well. […] Attack time was measured over a 5 min period as a cross over design.

Series [3] has as its target T1, rat recombinant 5-HT1b (r5-HT1b) receptors (Rattus norvegicus, UniProt P28564).
T1 construct: expressed in transfected cells
Put plainly: SPA-based 35S-GTPγS binding assay (functional). The series is classed as biochemical. Here is the method: In this study in vitro binding assays were conducted to measure the affinity of zolmitriptan and its active metabolite NDMZ to rat and human 5-HT1B receptors.
Zolmitriptan was tested in a SPA-based 35S-GTPγS binding assay in cells expressing human 5-HT1b (h5-HT1b) receptors or rat recombinant 5-HT1b (r5-HT1b) receptors at ten concentrations in duplicate.
(GTPγS is a poorly hydrolysed GTP analogue; its binding reports G protein activation.)

For another series, the target named is 5-HT1b receptor (Homo sapiens, UniProt P28222). In words: 5-HT1b receptor occupancy and efficacy model, human dose estimate. Here is the method: Specifically, 5-HT1b receptor occupancy and efficacy models measured potency of zolmitriptan and NMDZ at the 5-HT1b receptor and the ratio of zolmitriptan: NDMZ in human CSF. The 5-HT1b receptor efficacy model was used to predict the level of 5-HT1b activation (i.e., efficacy) by both zolmitriptan and NDMZ based on the concentration of zolmitriptan in the CSF. From this target zolmitriptan dose ranges required to achieve an effective CSF exposures in humans were calculated.
Chain of 5-HT1b receptor (P28222 whole entry): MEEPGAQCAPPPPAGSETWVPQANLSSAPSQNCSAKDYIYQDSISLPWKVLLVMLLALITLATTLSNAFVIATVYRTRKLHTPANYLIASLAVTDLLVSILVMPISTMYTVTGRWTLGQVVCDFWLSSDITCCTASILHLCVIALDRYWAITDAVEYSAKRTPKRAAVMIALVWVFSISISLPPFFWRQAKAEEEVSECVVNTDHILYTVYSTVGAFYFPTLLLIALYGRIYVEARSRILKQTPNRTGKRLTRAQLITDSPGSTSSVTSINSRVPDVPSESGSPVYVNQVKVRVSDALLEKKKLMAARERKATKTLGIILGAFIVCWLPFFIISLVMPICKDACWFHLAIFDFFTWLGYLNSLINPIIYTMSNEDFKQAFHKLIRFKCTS
Using classical receptor theory, the receptor occupancy when considering two ligands (i.e., entities) can be predicted using the following relationship:
Total % occupancy=(% occupancy by A)+{[100%−(% occupancy by A)]×(% occupancy by B)} when considering a fixed concentration of both A and B.
Total % Efficacy={[Zolmitriptan]/([Zolmitriptan]+Ki,Z)}+(100−{[Zolmitriptan]/([Zolmitriptan]+Ki,Z)}×{[NDMZ]/([NDMZ]+Ki,N)}

SMILES strings stand for the structures.

T1 sequence (P28564 whole entry): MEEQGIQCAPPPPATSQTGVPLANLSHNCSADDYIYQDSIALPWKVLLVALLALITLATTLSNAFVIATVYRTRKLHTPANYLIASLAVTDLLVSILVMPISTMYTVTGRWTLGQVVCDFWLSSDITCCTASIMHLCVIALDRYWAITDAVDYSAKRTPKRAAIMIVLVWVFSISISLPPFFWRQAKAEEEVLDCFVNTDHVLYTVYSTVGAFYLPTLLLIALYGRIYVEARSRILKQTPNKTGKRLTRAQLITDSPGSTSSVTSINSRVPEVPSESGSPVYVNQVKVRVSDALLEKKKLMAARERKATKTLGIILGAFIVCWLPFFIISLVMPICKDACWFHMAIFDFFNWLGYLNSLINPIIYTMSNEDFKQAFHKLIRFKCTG

Consider `CNCCc1c[nH]c2ccc(C[C@H]3COC(=O)N3)cc12` [NDMZ, N-desmethyl zolmitriptan], for which, in series [1] (zolmitriptan 10 mg/kg i.p., male c57/Bl6 mice), the “metabolite level in CSF after zolmitriptan dosing” value is recorded as “below the lower limit of quantification”. Moreover, the “metabolite level after zolmitriptan dosing” value in series [2] was “below the lower limit of quantification”.

As for `CN(C)CCc1c[nH]c2ccc(C[C@H]3COC(=O)N3)cc12` [Zolmitriptan, (4S)-4-[[3-[2-(dimethylamino)ethyl]-1H-indol-5-yl]methyl]-1,3-oxazolidin-2-one], the “reduction in attack time compared to risperidone (0.03 mg/kg) and vehicle control” value in the series on CD-1 mice is “greater reduction in attack time”. Also, in series [1] (10 mg/Kg i.p., c57/Bl6 ASD mouse model), the “CSF Cmax” value is recorded as 62 nM. The “activity in GTPgS at CSF Cmax (EC36)” value in series [3] (CSF Cmax 18.8 nM, CD-1 mice, 3 mg/Kg i.p.) stood at 36%. Also, in series [3] (CSF Cmax 62 nM, c57/Bl6 mice, 10 mg/Kg i.p.), the “activity in GTPgS at CSF Cmax (EC65)” value turned out to be 65%. For the same compound, the “CSF levels required for a therapeutic effect in humans, lower than in mice” value on 5-HT1b receptor (based on human vs rat 5-HT1b EC50) is “about 8.3 fold”. In addition, the “concentration for 50% Total Efficacy relative to the zolmitriptan EC50” value on 5-HT1b receptor (combined effect of the metabolite) is 3.7 fold. Besides, the EC50 on 5-HT1b receptor (read-out: concentration of zolmitriptan in human CSF predicted to induce 50% efficacy (EC50) of 5-HT1b by zolmitriptan and NDMZ, model, zolmitriptan: NDMZ 1.0:0.75) was 1.09 nM.

The values above are taken from US20240189240A1, “PHARMACEUTICAL COMPOSITIONS COMPRISING ZOLMITRIPTAN” (MapLight Therapeutics, Inc., priority 2021, published 2024).
